Measurements from ChEMBL document CHEMBL1201862, “PubChem BioAssay data set” (2004).
Activity calls are given as the source filed them.

Assays:
Format in all cases: functional
[1] = target: Casein kinase I isoform gamma-1 (Homo sapiens, UniProt Q9HCP0);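 further: measured as the CSNK1G1 member of a kinome profiling panel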
[2] = target: Mitogen-activated protein kinase kinase kinase kinase 5 (Homo sapiens, UniProt Q9Y4K4);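 further: measured as one member of a kinome-spanning kinase panel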
[3] = target: STE20-like serine/threonine-protein kinase (Homo sapiens, UniProt Q9H2G2)
STE20-like serine/threonine-protein kinase, sequence (Q9H2G2 whole entry): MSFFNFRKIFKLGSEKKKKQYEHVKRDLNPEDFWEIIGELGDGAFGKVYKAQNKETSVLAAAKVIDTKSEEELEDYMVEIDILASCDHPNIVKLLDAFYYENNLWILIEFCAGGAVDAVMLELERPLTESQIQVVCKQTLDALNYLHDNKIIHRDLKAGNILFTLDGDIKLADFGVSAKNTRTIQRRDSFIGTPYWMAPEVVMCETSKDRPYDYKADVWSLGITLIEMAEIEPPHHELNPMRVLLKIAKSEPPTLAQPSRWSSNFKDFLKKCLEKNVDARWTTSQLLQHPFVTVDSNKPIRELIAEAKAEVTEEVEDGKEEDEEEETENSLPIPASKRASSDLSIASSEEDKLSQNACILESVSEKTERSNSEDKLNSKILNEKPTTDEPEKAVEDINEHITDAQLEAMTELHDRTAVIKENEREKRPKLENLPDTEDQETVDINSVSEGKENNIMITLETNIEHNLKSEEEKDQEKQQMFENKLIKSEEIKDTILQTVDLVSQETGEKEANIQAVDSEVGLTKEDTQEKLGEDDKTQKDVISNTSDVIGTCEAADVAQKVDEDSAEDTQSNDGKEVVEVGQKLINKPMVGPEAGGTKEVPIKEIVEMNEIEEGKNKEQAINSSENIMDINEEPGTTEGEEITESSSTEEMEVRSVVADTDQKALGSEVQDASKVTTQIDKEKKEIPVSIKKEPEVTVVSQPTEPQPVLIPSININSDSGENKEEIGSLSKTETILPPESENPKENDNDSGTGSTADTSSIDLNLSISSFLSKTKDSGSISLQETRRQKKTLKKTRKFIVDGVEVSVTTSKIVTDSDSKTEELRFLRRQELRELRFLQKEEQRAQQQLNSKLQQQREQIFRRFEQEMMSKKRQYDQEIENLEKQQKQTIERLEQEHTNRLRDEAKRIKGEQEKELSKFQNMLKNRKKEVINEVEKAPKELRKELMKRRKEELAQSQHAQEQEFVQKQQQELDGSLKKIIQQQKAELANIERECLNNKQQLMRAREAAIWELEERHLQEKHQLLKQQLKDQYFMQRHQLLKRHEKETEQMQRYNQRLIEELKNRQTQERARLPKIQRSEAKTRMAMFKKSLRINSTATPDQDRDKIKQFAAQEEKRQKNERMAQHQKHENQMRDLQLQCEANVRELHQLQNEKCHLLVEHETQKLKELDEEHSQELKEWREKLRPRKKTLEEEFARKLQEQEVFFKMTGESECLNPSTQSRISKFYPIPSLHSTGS

[4] = target: Serine/threonine-protein kinase PAK 1 (Homo sapiens, UniProt Q13153)
Serine/threonine-protein kinase PAK 1, sequence (Q13153 whole entry): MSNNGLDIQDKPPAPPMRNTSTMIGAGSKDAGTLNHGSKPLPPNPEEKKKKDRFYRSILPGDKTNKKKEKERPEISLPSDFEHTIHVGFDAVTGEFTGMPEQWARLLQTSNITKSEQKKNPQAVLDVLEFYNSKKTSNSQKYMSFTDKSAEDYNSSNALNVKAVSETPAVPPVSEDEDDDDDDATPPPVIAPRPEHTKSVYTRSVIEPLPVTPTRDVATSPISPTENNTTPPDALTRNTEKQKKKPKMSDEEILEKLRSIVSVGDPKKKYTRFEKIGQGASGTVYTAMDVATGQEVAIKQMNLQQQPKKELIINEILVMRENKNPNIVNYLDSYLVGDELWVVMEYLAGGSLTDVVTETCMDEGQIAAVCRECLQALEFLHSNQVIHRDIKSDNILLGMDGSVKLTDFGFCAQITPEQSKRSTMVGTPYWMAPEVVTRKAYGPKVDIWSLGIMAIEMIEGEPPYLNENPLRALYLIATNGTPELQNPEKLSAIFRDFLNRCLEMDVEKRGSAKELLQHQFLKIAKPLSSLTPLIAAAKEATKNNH

[5] = target: Serine/threonine-protein kinase PLK1 (Homo sapiens, UniProt P53350);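 further: PLK1 measured as one member of a kinome-wide profiling panel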
[6] = target: Casein kinase I isoform alpha (Homo sapiens, UniProt P48729)
Casein kinase I isoform alpha, sequence (P48729 whole entry, canonical isoform): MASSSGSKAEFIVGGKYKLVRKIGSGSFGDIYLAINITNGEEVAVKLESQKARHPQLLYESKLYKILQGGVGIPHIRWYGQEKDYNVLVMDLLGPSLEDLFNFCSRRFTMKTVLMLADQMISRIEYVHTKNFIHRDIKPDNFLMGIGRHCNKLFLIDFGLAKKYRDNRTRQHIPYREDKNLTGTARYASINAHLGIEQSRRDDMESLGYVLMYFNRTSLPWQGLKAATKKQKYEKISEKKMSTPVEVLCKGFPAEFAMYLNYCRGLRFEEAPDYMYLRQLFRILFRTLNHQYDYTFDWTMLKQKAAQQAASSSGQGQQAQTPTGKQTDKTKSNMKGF

[7] = target: T1, Interleukin-1 receptor-associated kinase 4 (Homo sapiens, UniProt Q9NWZ3)
T1 sequence (Q9NWZ3 whole entry): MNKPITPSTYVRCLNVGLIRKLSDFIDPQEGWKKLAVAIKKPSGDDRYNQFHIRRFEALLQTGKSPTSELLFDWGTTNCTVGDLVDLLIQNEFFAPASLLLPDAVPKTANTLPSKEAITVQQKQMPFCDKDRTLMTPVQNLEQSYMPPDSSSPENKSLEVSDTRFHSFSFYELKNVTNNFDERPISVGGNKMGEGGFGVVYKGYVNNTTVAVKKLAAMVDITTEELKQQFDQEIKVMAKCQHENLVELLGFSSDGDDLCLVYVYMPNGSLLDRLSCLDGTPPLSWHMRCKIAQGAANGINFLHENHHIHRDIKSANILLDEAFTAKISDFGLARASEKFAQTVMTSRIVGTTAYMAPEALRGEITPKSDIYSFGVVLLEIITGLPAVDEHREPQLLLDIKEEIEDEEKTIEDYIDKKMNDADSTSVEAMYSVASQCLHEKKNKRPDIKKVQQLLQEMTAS

[8] = target: Death-associated protein kinase 3 (Homo sapiens, UniProt O43293);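 further: measured as one member of a kinome-wide profiling panel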
Death-associated protein kinase 3, sequence (O43293 whole entry): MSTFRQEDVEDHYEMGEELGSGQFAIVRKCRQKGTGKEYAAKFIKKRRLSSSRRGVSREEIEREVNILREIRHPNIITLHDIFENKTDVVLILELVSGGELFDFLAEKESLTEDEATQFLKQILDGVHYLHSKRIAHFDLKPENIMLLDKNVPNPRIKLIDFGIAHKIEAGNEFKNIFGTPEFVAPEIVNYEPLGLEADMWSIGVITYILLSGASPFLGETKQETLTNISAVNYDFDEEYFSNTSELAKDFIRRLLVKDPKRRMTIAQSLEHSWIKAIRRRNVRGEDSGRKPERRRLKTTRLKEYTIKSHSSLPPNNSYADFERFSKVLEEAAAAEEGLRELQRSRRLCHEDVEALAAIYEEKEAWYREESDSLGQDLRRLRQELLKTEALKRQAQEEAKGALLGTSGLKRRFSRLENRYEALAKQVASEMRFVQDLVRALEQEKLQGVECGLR

[9] = target: Macrophage colony-stimulating factor 1 receptor (Homo sapiens, UniProt P07333);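 further: value comes from the Navigating the Kinome screening panel, CSF1R member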
[10] = target: Protein-tyrosine kinase 6 (Homo sapiens, UniProt Q13882)
[11] = target: Interleukin-1 receptor-associated kinase 1 (Homo sapiens, UniProt P51617);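 further: IRAK1 tested as one member of a kinome panel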
Interleukin-1 receptor-associated kinase 1, sequence (P51617 whole entry): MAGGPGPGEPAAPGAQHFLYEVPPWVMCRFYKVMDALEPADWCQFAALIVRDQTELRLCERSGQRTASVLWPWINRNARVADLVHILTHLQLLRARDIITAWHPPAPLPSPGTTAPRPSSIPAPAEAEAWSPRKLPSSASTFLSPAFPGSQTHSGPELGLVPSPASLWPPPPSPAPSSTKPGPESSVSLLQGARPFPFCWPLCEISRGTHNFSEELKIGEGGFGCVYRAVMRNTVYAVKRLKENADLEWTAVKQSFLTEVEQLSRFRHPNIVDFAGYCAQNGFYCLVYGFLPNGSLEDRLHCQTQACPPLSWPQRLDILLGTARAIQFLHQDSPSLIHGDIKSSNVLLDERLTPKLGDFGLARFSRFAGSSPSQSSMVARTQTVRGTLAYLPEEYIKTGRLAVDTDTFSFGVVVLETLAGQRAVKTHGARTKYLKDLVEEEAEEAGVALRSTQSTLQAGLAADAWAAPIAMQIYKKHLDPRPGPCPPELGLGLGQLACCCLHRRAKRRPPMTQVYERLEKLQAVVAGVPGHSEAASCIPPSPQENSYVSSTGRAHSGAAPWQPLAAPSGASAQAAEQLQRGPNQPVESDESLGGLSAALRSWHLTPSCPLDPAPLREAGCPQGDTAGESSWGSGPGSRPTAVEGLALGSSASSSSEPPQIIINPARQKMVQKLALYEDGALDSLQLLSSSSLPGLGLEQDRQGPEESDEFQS

[12] = target: MAP kinase-interacting serine/threonine-protein kinase 2 (Homo sapiens, UniProt Q9HBH9)
MAP kinase-interacting serine/threonine-protein kinase 2, sequence (Q9HBH9 whole entry): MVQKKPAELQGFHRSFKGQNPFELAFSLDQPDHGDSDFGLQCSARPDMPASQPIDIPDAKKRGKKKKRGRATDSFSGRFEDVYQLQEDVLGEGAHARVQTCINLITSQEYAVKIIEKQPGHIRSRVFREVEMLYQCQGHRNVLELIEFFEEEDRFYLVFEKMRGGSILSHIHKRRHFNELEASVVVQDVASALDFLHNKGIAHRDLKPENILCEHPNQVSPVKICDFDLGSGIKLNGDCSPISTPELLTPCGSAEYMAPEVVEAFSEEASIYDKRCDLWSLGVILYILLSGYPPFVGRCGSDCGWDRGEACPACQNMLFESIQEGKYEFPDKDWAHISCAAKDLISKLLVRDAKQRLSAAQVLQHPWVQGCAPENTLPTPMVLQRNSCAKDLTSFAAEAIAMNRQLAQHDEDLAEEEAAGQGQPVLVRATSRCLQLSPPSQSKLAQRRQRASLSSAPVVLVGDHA

[13] = target: Mitogen-activated protein kinase 9 (Homo sapiens, UniProt P45984);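 further: value from a kinome panel profiling assay, MAPK9 panel entry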
Mitogen-activated protein kinase 9, sequence (P45984 whole entry): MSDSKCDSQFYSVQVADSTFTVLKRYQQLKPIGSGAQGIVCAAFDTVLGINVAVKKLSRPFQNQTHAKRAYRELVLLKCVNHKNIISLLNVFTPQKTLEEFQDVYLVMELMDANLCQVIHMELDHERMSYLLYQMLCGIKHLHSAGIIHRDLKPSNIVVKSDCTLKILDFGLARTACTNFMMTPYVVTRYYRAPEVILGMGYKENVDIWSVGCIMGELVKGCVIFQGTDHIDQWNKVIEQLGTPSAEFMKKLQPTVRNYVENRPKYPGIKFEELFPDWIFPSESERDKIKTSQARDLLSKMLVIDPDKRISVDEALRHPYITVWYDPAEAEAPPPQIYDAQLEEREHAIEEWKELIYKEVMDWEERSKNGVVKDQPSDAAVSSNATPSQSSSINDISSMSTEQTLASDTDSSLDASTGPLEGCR

[14] = target: T2, Serine/threonine-protein kinase BRSK1 (Homo sapiens, UniProt Q8TDC3);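 further: measured within a kinome-wide kinase panel, with the target listed as KIAA1811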
T2 sequence (Q8TDC3 whole entry): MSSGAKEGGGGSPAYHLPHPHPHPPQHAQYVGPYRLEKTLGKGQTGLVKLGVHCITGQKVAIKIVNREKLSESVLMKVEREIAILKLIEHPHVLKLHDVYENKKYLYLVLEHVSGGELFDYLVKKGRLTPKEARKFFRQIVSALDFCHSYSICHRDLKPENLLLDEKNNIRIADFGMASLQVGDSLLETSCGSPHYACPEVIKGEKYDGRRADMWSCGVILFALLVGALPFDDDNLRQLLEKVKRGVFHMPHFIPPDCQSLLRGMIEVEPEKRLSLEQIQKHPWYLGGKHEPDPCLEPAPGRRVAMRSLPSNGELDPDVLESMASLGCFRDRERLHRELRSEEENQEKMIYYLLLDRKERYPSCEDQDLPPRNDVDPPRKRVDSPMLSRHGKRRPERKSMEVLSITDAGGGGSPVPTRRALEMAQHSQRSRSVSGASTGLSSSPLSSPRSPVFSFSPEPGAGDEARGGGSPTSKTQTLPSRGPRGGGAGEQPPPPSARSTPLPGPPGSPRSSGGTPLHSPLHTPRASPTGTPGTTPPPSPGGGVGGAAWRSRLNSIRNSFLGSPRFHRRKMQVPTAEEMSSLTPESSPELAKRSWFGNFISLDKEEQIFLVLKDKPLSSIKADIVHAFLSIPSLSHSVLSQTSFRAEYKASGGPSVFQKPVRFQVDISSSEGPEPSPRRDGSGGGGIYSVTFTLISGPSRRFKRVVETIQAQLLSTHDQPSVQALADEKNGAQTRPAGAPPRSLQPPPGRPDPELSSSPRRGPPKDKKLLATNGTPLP

[15] = target: MAP kinase-activated protein kinase 3 (Homo sapiens, UniProt Q16644);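 further: value comes from a kinome-wide profiling panel in which MAPKAPK3 is one of the panel members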
MAP kinase-activated protein kinase 3, sequence (Q16644 whole entry): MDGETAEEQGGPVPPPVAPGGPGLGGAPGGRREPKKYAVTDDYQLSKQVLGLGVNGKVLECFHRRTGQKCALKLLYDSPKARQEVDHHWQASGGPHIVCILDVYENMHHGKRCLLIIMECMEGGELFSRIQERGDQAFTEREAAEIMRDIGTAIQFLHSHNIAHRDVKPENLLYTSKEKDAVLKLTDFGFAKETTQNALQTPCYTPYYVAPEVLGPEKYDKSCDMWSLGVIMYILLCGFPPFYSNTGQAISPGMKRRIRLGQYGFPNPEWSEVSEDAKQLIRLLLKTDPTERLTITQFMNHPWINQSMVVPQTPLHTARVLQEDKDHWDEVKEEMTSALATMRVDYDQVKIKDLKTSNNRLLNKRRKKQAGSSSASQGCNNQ

Casein kinase I isoform gamma-1, sequence (Q9HCP0 whole entry, canonical isoform): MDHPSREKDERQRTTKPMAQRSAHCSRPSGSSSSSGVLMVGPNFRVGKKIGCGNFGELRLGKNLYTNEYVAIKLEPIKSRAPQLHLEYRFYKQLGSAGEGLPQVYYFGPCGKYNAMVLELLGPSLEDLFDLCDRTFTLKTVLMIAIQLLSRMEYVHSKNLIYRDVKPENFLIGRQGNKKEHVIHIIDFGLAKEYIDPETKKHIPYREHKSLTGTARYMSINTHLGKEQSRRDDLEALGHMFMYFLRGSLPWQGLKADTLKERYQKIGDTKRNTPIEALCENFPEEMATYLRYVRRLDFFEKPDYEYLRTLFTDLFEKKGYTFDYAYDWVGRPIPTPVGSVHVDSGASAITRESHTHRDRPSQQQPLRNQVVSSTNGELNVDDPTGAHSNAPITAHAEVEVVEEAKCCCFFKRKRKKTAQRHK

Ki [1] | Ki [2] | Ki [3] | Ki [4] | Ki [5] | Ki [6] | Ki [7] | Ki [9] | Ki [10] | Ki [11] | Ki [12] | Ki [13] | Ki [14] | Ki [15] | SMILES | Ki [8] | also measured
25.1 nM (active) | > 2510 nM (inactive) | 10000 nM (active) | > 10000 nM (inactive) | > 7940 nM (inactive) | 7.94 nM (active) | 631 nM (active) | > 2510 nM (inactive) | > 2510 nM (inactive) | 100 nM (active) | 79.4 nM (active) | 501 nM (active) | 6310 nM (active) | > 10000 nM (inactive) | NC(=O)c1cc(-c2ccnc(N)n2)[nH]c1-c1ccc(Cl)cc1Cl | 398 nM (active) | pKi [1]: 7.6; pKi [3]: 5; pKi [6]: 8.1; pKi [7]: 6.2; pKi [8]: 6.4; pKi [11]: 7; pKi [12]: 7.1; pKi [13]: 6.3; pKi [14]: 5.2
1260 nM (active) | 63.1 nM (active) | 158 nM (active) | 398 nM (active) | 2510 nM (active) | 501 nM (active) | 251 nM (active) | > 2510 nM (inactive) | > 2510 nM (inactive) | 501 nM (active) | 316 nM (active) | 398 nM (active) | 158 nM (active) | > 10000 nM (inactive) | NC(COc1cncc(-c2ccc3c(c2)C(=Cc2ccco2)C(=O)N3)c1)Cc1c[nH]c2ccccc12 (centres undefined) | 20 nM (active) | –
